Patent publication US20080293818A1, “Regulator of Physiological Function of Ghrelin and Use Thereof” (priority 2004, published 2008)

Key:
[1] = test system: n-heptanoyl ghrelin in the stomach; assay: Molecular forms of stomach ghrelin after glyceryl triheptanoate ingestion (HPLC, C-RIA and N-RIA); assay type: in vivo, mouse
Procedure: Male C57BL/6J mice weighing 20-25 g (10-12 week old) were maintained under controlled temperature (21-23° C.) and light conditions (light on 0700-1900) with ad libitum access to food and water. Medium-chain fatty acids (MCFAs), i.e., n-hexanoic, n-octanoic, and n-lauric acids (Sigma-Aldrich Japan Co., Ltd., Tokyo), were dissolved in water at 5 mg/ml. n-Palmitic acid, a common long-chain fatty acid (LCFA) (Sigma-Aldrich Japan Co., Ltd., Tokyo), was mixed into standard laboratory chow (CLEA Rodent Diet CE-2, CLEA Japan, Osaka) at a concentration of 1% (w/w), to equilibrate the total intake amount of this lipid to the other medium-chain fatty acids contained in the food. Medium- and long-chain triglycerides (MCTs and LCTs), i.e., glyceryl trihexanoate, trioctanoate, tridecanoate and tripalmitates (Wako Pure Chemical, Osaka, Japan), were mixed with standard laboratory chow at a concentration of 5% (w/w). Whole stomach tissues from treated mice were collected at the indicated times (0-14 days) after ingesting the free fatty acid- or triacylglyceride-containing food. Fresh tissue samples from these mice were diced and boiled for 5 minutes in a 10-fold volume of water. The tissue-containing solution was then adjusted to 1M acetic acid after cooling and then homogenized with a Polytron mixer. The supernatant, obtained after centrifugation at 15,000 rpm for 15 minutes, was then lyophilized. The lyophilized material was dissolved in RIA buffer and subjected to ghrelin C- and N-RIA. To elucidate the forms of ghrelin peptides modified by different acyl groups, extracted stomach peptides were collected using a Sep-Pak Plus C18 cartridge (Waters, Milford, Mass.) and subjected to C18 RP-HPLC (Symmetry 300, 3.9×150 mm, Waters) with a linear gradient from 10 to 60% CH3CN/0.1% TFA at a flow rate of 1.0 ml/minute for 40 minutes. Five hundred micro-litter fractions were collected. Ghrelin peptide content in each fraction was measured by ghrelin C- and N-RIA as described above. Degradation of ghrelin was not observed during the extraction.
Male C57BL/6J mice weighing 20-25 g (10-12 week old) were maintained under controlled temperature (21-23° C.) and light conditions (light on 0700-1900) with ad libitum access to food and water. Glyceryl triheptanoate (Fluka Chemie GmbH, Buchs, Switzerland) was mixed with standard laboratory chow at a concentration of 5% (w/w). Four days after mice were fed glyceryl triheptanoate-containing food, stomachs (total 1,000 mg) were recovered from mice (n=7). The total consumption of glyceryl triheptanoate-containing food was approximately 13.5 g/mouse, amounting to 675 mg total glyceryl triheptanoate ingested by each mouse. Stomachs were minced and boiled for 5 minutes in 5× volumes of water to inactivate intrinsic proteases. […]

[2] = test system: plasma ghrelin peptides; assay: Molecular forms of circulating (plasma) ghrelin after glyceryl triheptanoate ingestion; assay type: in vivo, mouse; conditions: fed 4 days, HPLC, C-RIA
Procedure: Plasma samples were prepared as previously described [D2]. Whole blood samples were immediately transferred to chilled polypropylene tubes containing EDTA-2 Na (1 mg/ml) and aprotinin (1,000 kallikrein inactivator units/ml) and centrifuged at 4° C. Immediately after separation of the plasma, hydrogen chloride was added to the sample at final concentration of 0.1 N and then diluted with an equal volume of physiological saline. The sample was loaded onto a Sep-Pak C18 cartridge (Waters, Milford, Mass.) pre-equilibrated with 0.1% trifluoroacetic acid (TFA) and 0.9% NaCl. The cartridge was washed with 0.9% NaCl and 5% acetonitrile (CH3CN)/0.1% TFA, and then eluted with 60% CH3CN/0.1% TFA. The eluate was then lyophilized and residual materials were redissolved in 1 M acetic acid (AcOH) and adsorbed onto a SP-Sephadex C-25 column (H^+-form, Pharmacia, Uppsala, Sweden) pre-equilibrated in 1 M AcOH. Successive elution with 1 M AcOH, 2 M pyridine, and 2 M pyridine-AcOH (pH 5.0) provided three fractions: SP-I, SP-II and SP-III. […] Ghrelin peptide content in each fraction was measured by ghrelin C-RIA as described above.
Plasma samples collected from control mice fed standard chow (A) and glyceryl triheptanoate-treated mice (B) were fractionated by HPLC and measured for ghrelin immunoreactivity by C-RIA. […]

[3] = stomach extract, HPLC fraction, 0.2 mg stomach tissue equivalent

## CCCCCCC(=O)OCC(COC(=O)CCCCCC)OC(=O)CCCCCC [glyceryl triheptanoate]
[1]; mice, HPLC, C-RIA / N-RIA
  appearance of peak b / d (n-heptanoyl ghrelin) immunoreactivity in stomach extracts: observed only in mice fed glyceryl triheptanoate
[1]; [3]
  concentration of peak b (n-heptanoyl ghrelin) determined by C-RIA: 466.3 fmol/tube
  concentration of peak d (n-heptanoyl ghrelin) measured by N-RIA: 74.9 fmol/tube
[2]
  appearance of plasma peak f (retention time of n-heptanoyl ghrelin): observed only in samples from glyceryl triheptanoate-treated mice
